From the NIST ThermoML archive (doi:10.1021/je100909b)

Test: mn = molality of the nth substance listed, in mol/kg
Details: 101 kPa, Liquid; for speed of sound: Sing-around technique in a fixed-path interferometer

NCC(=O)O [2-aminoacetic acid] + O
Details	speed of sound [m/s]	viscosity [mPa·s]
288.15 K, m1 = 0.05362	1468.9	–
288.15 K, m1 = 0.06844	–	1.149
288.15 K, m1 = 0.1287	1473.1	–
288.15 K, m1 = 0.1393	–	1.159
288.15 K, m1 = 0.191	1476.6	–
288.15 K, m1 = 0.2522	1480.1	–
288.15 K, m1 = 0.2552	–	1.176
288.15 K, m1 = 0.3423	1485.3	–
288.15 K, m1 = 0.3468	–	1.19
288.15 K, m1 = 0.4241	–	1.202
288.15 K, m1 = 0.5002	–	1.213
288.15 K, m1 = 0.5062	1494.9	–
288.15 K, m1 = 0.562	1498.1	–
298.15 K, m1 = 0.05362	1499.5	–
298.15 K, m1 = 0.06025	–	0.8979
298.15 K, m1 = 0.1223	–	0.9055
298.15 K, m1 = 0.1287	1503.4	–
298.15 K, m1 = 0.191	1506.8	–
298.15 K, m1 = 0.1933	–	0.9138
298.15 K, m1 = 0.2522	1510	–
298.15 K, m1 = 0.2798	–	0.9248
298.15 K, m1 = 0.3423	1514.9	–
298.15 K, m1 = 0.4145	–	0.942
298.15 K, m1 = 0.4859	–	0.9507
298.15 K, m1 = 0.5062	1523.9	–
298.15 K, m1 = 0.562	1526.9	–
308.15 K, m1 = 0.05362	1522.5	–
308.15 K, m1 = 0.06295	–	0.7261
308.15 K, m1 = 0.1083	1525.3	–
308.15 K, m1 = 0.1248	–	0.7325
308.15 K, m1 = 0.1664	1528.2	–
308.15 K, m1 = 0.2476	–	0.7455
308.15 K, m1 = 0.263	1533.1	–
308.15 K, m1 = 0.3345	–	0.7536
308.15 K, m1 = 0.3737	1538.8	–
308.15 K, m1 = 0.4195	–	0.7624
308.15 K, m1 = 0.4709	–	0.7672
308.15 K, m1 = 0.4967	1545.2	–
318.15 K, m1 = 0.05362	1539	–
318.15 K, m1 = 0.06088	–	0.6017
318.15 K, m1 = 0.1248	–	0.6064
318.15 K, m1 = 0.1287	1542.7	–
318.15 K, m1 = 0.191	1545.7	–
318.15 K, m1 = 0.2476	–	0.6176
318.15 K, m1 = 0.2522	1548.7	–
318.15 K, m1 = 0.3345	–	0.6253
318.15 K, m1 = 0.3423	1553.1	–
318.15 K, m1 = 0.4195	–	0.6329
318.15 K, m1 = 0.4709	–	0.6356
318.15 K, m1 = 0.5062	1561.3	–
318.15 K, m1 = 0.562	1564.1	–

CCC(N)C(=O)O (stereo not drawn) [(.+-.)-α-aminobutyric acid] + O
Details	speed of sound [m/s]	viscosity [mPa·s]
288.15 K, m1 = 0.05062	1469.9	–
288.15 K, m1 = 0.05106	–	1.159
288.15 K, m1 = 0.09089	–	1.181
288.15 K, m1 = 0.1107	1474.7	–
288.15 K, m1 = 0.1764	–	1.22
288.15 K, m1 = 0.2175	1483.4	–
288.15 K, m1 = 0.2253	–	1.242
288.15 K, m1 = 0.2685	–	1.262
288.15 K, m1 = 0.2738	1488	–
288.15 K, m1 = 0.3587	1494.9	–
288.15 K, m1 = 0.4044	–	1.324
288.15 K, m1 = 0.4523	1502.7	–
298.15 K, m1 = 0.03245	–	0.8996
298.15 K, m1 = 0.05413	–	0.9064
298.15 K, m1 = 0.07577	–	0.9126
298.15 K, m1 = 0.108	–	0.9222
298.15 K, m1 = 0.1107	1505.2	–
298.15 K, m1 = 0.1433	–	0.9326
298.15 K, m1 = 0.1888	–	0.9459
298.15 K, m1 = 0.2162	–	0.9534
298.15 K, m1 = 0.2175	1513.6	–
298.15 K, m1 = 0.2738	1518	–
298.15 K, m1 = 0.3587	1524.7	–
298.15 K, m1 = 0.4523	1532.1	–
308.15 K, m1 = 0.04831	–	0.731
308.15 K, m1 = 0.05062	1523.4	–
308.15 K, m1 = 0.08861	–	0.7438
308.15 K, m1 = 0.1107	1527.7	–
308.15 K, m1 = 0.1735	–	0.7667
308.15 K, m1 = 0.2175	1535.4	–
308.15 K, m1 = 0.2198	–	0.7794
308.15 K, m1 = 0.2655	–	0.7915
308.15 K, m1 = 0.2738	1539.4	–
308.15 K, m1 = 0.3587	1545.5	–
308.15 K, m1 = 0.3962	–	0.8261
308.15 K, m1 = 0.4523	1552.3	–
318.15 K, m1 = 0.04911	–	0.6052
318.15 K, m1 = 0.05062	1539.9	–
318.15 K, m1 = 0.08886	–	0.6122
318.15 K, m1 = 0.1107	1544	–
318.15 K, m1 = 0.1735	–	0.6267
318.15 K, m1 = 0.2175	1551.2	–
318.15 K, m1 = 0.2196	–	0.6354
318.15 K, m1 = 0.2658	–	0.6432
318.15 K, m1 = 0.2738	1555.1	–
318.15 K, m1 = 0.3587	1560.9	–
318.15 K, m1 = 0.3964	–	0.6658
318.15 K, m1 = 0.4523	1567.3	–

CC(N)C(=O)O (stereo not drawn) [DL-2-aminopropanoic acid] + O
Details	speed of sound [m/s]	viscosity [mPa·s]
288.15 K, m1 = 0.04982	–	1.153
288.15 K, m1 = 0.07777	1471.3	–
288.15 K, m1 = 0.1109	–	1.172
288.15 K, m1 = 0.1126	1473.8	–
288.15 K, m1 = 0.2059	1480.4	–
288.15 K, m1 = 0.2183	–	1.204
288.15 K, m1 = 0.2612	–	1.217
288.15 K, m1 = 0.3107	–	1.231
288.15 K, m1 = 0.3139	1488.1	–
288.15 K, m1 = 0.3825	1493	–
288.15 K, m1 = 0.4409	1497.2	–
288.15 K, m1 = 0.4536	–	1.272
288.15 K, m1 = 0.5099	–	1.29
298.15 K, m1 = 0.07777	1501.8	–
298.15 K, m1 = 0.07866	–	0.9082
298.15 K, m1 = 0.1126	1504.1	–
298.15 K, m1 = 0.1934	–	0.9331
298.15 K, m1 = 0.2059	1510.4	–
298.15 K, m1 = 0.3139	1517.7	–
298.15 K, m1 = 0.3188	–	0.9584
298.15 K, m1 = 0.3825	1522.3	–
298.15 K, m1 = 0.4275	–	0.9832
298.15 K, m1 = 0.4409	1526.3	–
298.15 K, m1 = 0.5485	–	1.013
298.15 K, m1 = 0.593	–	1.018
298.15 K, m1 = 0.7354	–	1.057
298.15 K, m1 = 0.8417	–	1.072
298.15 K, m1 = 0.9533	–	1.089
308.15 K, m1 = 0.04619	–	0.7279
308.15 K, m1 = 0.07777	1524.6	–
308.15 K, m1 = 0.107	–	0.7391
308.15 K, m1 = 0.1126	1526.7	–
308.15 K, m1 = 0.2059	1532.4	–
308.15 K, m1 = 0.2145	–	0.7583
308.15 K, m1 = 0.2578	–	0.7656
308.15 K, m1 = 0.3071	–	0.7745
308.15 K, m1 = 0.3139	1539.1	–
308.15 K, m1 = 0.3489	–	0.7816
308.15 K, m1 = 0.3825	1543.4	–
308.15 K, m1 = 0.4409	1547	–
308.15 K, m1 = 0.4983	–	0.8076
318.15 K, m1 = 0.04529	–	0.6029
318.15 K, m1 = 0.07777	1540.9	–
318.15 K, m1 = 0.1064	–	0.6119
318.15 K, m1 = 0.1126	1542.8	–
318.15 K, m1 = 0.2059	1548.2	–
318.15 K, m1 = 0.2141	–	0.6275
318.15 K, m1 = 0.2564	–	0.6331
318.15 K, m1 = 0.3064	–	0.6409
318.15 K, m1 = 0.3139	1554.4	–
318.15 K, m1 = 0.3492	–	0.647
318.15 K, m1 = 0.3825	1558.4	–
318.15 K, m1 = 0.4205	–	0.6561
318.15 K, m1 = 0.4409	1561.8	–
